Activity calls are given as the source filed them. The calls are words filed in the database; no cut-off is given here.
Columns and labels:
[1] = molecular target: T1, c-Myc/c-Max (Homo sapiens) (UniProt P01106+P61244); assay: Inhibition of recombinant human His6 tagged c-Myc bHLH-LZ domain (353 to 439 residues) with GGCD extension at C-terminus/recombinant human full length His6 tagged Max (151 residues) expressed in Escherichia coli assessed as reduction of heterodimer binding to HEX labeled E-box-containing DNA after 90 mins by electrophoretic mobility shift assay
[2] = molecular target: T1, c-Myc/c-Max (Homo sapiens); assay: Inhibition of c-Myc/Max interaction in human HL60 nuclear extracts at 100 to 200 uM after 30 mins by co-immunoprecipitation assay; type: protein assay
HL-60 [3] = assay: Effect on absolute levels of c-Myc in human HL60 nuclear extracts at 100 to 200 uM after 30 mins by co-immunoprecipitation assay; details: hl-60, 0.5 h
HL-60 [4] = assay: Effect on absolute levels of Max in human HL60 nuclear extracts at 100 to 200 uM after 30 mins by co-immunoprecipitation assay; details: hl-60, 0.5 h
[5] = molecular target: Protein max (Homo sapiens) (UniProt P61244); assay: Binding affinity to recombinant human full length His6 tagged Max (151 residues) expressed in Escherichia coli M15 (pRep4) at 25 uM by fluorescence polarization assay
H016.4C = assay: Cytotoxicity against rat H016.4C cells assessed as cell growth inhibition at 6 to 50 uM after 3 to 9 days by trypan blue exclusion assay; type: functional, cell-based
[6] = Cytotoxicity against rat KO-HMG cells assessed as cell growth inhibition at 6 to 50 uM after 3 to 4 days by trypan blue exclusion assay; type: cell-based
[7] = molecular target: Myc proto-oncogene protein (Homo sapiens) (UniProt P01106); assay: Binding affinity to recombinant human His6 tagged c-Myc bHLH-LZ domain (353 to 439 residues) with GGCD extension at C-terminus expressed in Escherichia coli BL21 DE3 (pLysS) by fluorescence polarization assay
[8] = molecular target: Myc proto-oncogene protein (Rattus norvegicus) (UniProt P09416); assay: Inhibition of c-Myc in rat TGR1 cells assessed as cell growth inhibition at 6 to 50 uM after 3 to 4 days by trypan blue exclusion assay; type: cell-based
[9] = molecular target: Myc proto-oncogene protein (Homo sapiens) (UniProt P01106); assay: Binding affinity to recombinant human His6 tagged c-Myc bHLH-LZ domain (353 to 439 residues) with GGCD extension at C-terminus expressed in Escherichia coli BL21 DE3 (pLysS) at 25 uM by fluorescence polarization assay

inhibition [1]	inhibition [2]	Activity [5]	K [7]	inhibition [8]	Activity [9]	SMILES	Activity (HL-60 [3])	Activity (HL-60 [4])	growth inhibition (GI) (H016.4C)	Activity [6]
Dose-dependent effect	Active	inactive	2.5 µM	Active	Active	O=C1NC(=S)S/C1=C\c1ccc(Cl)cc1	Non-Toxic	Non-Toxic	inactive	Non-Toxic
–	–	inactive	–	–	inactive	O=C1NC(=S)S/C1=C\c1ccc(O)cc1	–	–	–	–
Dose-dependent effect	Active	inactive	1 µM	–	Active	CC(C)c1ccc(/C=C2\SC(=S)NC2=O)cc1	Non-Toxic	Non-Toxic	–	–
–	–	inactive	–	–	inactive	CCN(CC)c1ccc(/C=C2\SC(=S)NC2=O)cc1	–	–	–	–
Dose-dependent effect	Active	inactive	8.6 µM	Active	Active	O=C1NC(=S)S/C1=C\c1ccc(O)c(O)c1	Non-Toxic	Non-Toxic	inactive	Non-Toxic
Dose-dependent effect	Active	inactive	2.3 µM	Active	Active	CCc1ccc(/C=C2\SC(=S)NC2=O)cc1	Non-Toxic	Non-Toxic	inactive	Non-Toxic

More lines, now with the values behind:

SMILES	inhibition [1]	inhibition [2]	Activity [5]	K [7]	inhibition [8]	Activity [9]	Activity (HL-60 [3])	Activity (HL-60 [4])	growth inhibition (GI) (H016.4C)	Activity [6]
O=C1NC(=S)S/C1=C\C1CCCCC1	Dose-dependent effect	Active	–	–	–	–	Non-Toxic	Non-Toxic	–	–
CCc1ccc(/C=C2\SC(=S)N(CCC(C)=O)C2=O)cc1	Dose-dependent effect	Active	inactive	1.4 µM	Active	Active	Non-Toxic	Non-Toxic	inactive	Non-Toxic
CCc1ccc(/C=C2\SC(SC)=NC2=O)cc1	Dose-dependent effect	Active	inactive	4.1 µM	–	Active	Non-Toxic	Non-Toxic	–	–
CCc1ccc(/C=C2\SC(=S)N(CN3CCCCC3)C2=O)cc1	Dose-dependent effect	Active	inactive	5.7 µM	–	Active	Non-Toxic	Non-Toxic	–	–
CC(C)c1ccc(/C=C2\SC(=S)N(CN3CCCCC3)C2=O)cc1	Dose-dependent effect	Active	inactive	1.8 µM	Active	Active	Non-Toxic	Non-Toxic	inactive	Non-Toxic
O=C1/C(=C/c2ccc(Cl)cc2)SC(=S)N1CN1CCCCC1	Dose-dependent effect	Active	inactive	0.6 µM	Active	Active	Non-Toxic	Non-Toxic	inactive	Non-Toxic
C=CCN1C(=O)/C(=C\c2ccc(CC)cc2)SC1=S	Dose-dependent effect	Active	inactive	3.1 µM	Active	Active	Non-Toxic	Non-Toxic	inactive	Non-Toxic
C/C(=C1/SC(=S)NC1=O)c1ccccc1	–	–	inactive	–	–	inactive	–	–	–	–
C#CCN1C(=O)S/C(=C/c2ccc(CC)cc2)C1=O	Dose-dependent effect	Active	–	–	Active	–	Non-Toxic	Non-Toxic	inactive	Non-Toxic

From ChEMBL document CHEMBL3991942, “Low molecular weight MYC-MAX inhibitors” (2011)
